Reference: ChEMBL document CHEMBL1667745, “Synthesis and antibacterial evaluation of novel clarithromycin derivatives with C-4″ elongated arylalkyl groups against macrolide-resistant strains” (2011)
In brackets after ≈: the same amount, converted by molar mass.

How the values were obtained:
Assay type in all cases: functional
Streptococcus pneumoniae [1] = test: Antimicrobial activity against erythromycin-susceptible Streptococcus pneumoniae ATCC 49619 by broth microdilution method
Streptococcus pneumoniae [2] = test: Antimicrobial activity against erythromycin-resistant Streptococcus pneumoniae B1 expressing the erm gene by broth microdilution method
Streptococcus pyogenes [3] = test: Antimicrobial activity against erythromycin-susceptible Streptococcus pyogenes S2 by broth microdilution method
Streptococcus pyogenes [4] = test: Antimicrobial activity against erythromycin-resistant Streptococcus pyogenes R2 by broth microdilution method
Streptococcus pneumoniae [5] = test: Antimicrobial activity against erythromycin-resistant Streptococcus pneumoniae AB11 expressing the erm and mef gene by broth microdilution method
Streptococcus pneumoniae [6] = test: Antimicrobial activity against erythromycin-resistant Streptococcus pneumoniae A22072 expressing the mef gene by broth microdilution method
Staphylococcus aureus [7] = test: Antimicrobial activity against penicillin-susceptible Staphylococcus aureus P1 by broth microdilution method
Staphylococcus aureus [8] = test: Antimicrobial activity against erythromycin-susceptible Staphylococcus aureus ATCC 25923 by broth microdilution method

Compound	MIC (Streptococcus pneumoniae [1]) [µg/mL]	MIC (Streptococcus pneumoniae [2]) [µg/mL]	MIC (Streptococcus pyogenes [3]) [µg/mL]	MIC (Streptococcus pyogenes [4]) [µg/mL]	MIC (Streptococcus pneumoniae [5]) [µg/mL]	MIC (Streptococcus pneumoniae [6]) [µg/mL]	MIC (Staphylococcus aureus [7]) [µg/mL]	MIC (Staphylococcus aureus [8]) [µg/mL]
CC[C@H]1OC(=O)[C@H](C)[C@@H](O[C@H]2C[C@@](C)(OC)[C@@H](OC(=O)NCc3ccccc3)[C@H](C)O2)[C@H](C)[C@@H](O[C@@H]2O[C@H](C)C[C@H](N(C)C)[C@H]2O)[C@](C)(OC)C[C@@H](C)C(=O)[C@H](C)[C@@H](O)[C@]1(C)O	0.25 (≈ 0.284 µM)	4 (≈ 4.54 µM)	0.12 (≈ 0.136 µM)	16 (≈ 18.2 µM)	8 (≈ 9.08 µM)	0.25 (≈ 0.284 µM)	1 (≈ 1.13 µM)	0.25 (≈ 0.284 µM)
CC[C@H]1OC(=O)[C@H](C)[C@@H](O[C@H]2C[C@@](C)(OC)[C@@H](OC(=O)NCc3ccc(F)cc3)[C@H](C)O2)[C@H](C)[C@@H](O[C@@H]2O[C@H](C)C[C@H](N(C)C)[C@H]2O)[C@](C)(OC)C[C@@H](C)C(=O)[C@H](C)[C@@H](O)[C@]1(C)O	0.06 (≈ 0.0667 µM)	4 (≈ 4.45 µM)	0.03 (≈ 0.0334 µM)	0.5 (≈ 0.556 µM)	8 (≈ 8.9 µM)	0.5 (≈ 0.556 µM)	2 (≈ 2.22 µM)	0.12 (≈ 0.133 µM)
CC[C@H]1OC(=O)[C@H](C)[C@@H](O[C@H]2C[C@@](C)(OC)[C@@H](OC(=O)NCc3ccc(OC)cc3)[C@H](C)O2)[C@H](C)[C@@H](O[C@@H]2O[C@H](C)C[C@H](N(C)C)[C@H]2O)[C@](C)(OC)C[C@@H](C)C(=O)[C@H](C)[C@@H](O)[C@]1(C)O	0.03 (≈ 0.0329 µM)	16 (≈ 17.6 µM)	0.03 (≈ 0.0329 µM)	0.12 (≈ 0.132 µM)	32 (≈ 35.1 µM)	0.25 (≈ 0.274 µM)	8 (≈ 8.78 µM)	0.12 (≈ 0.132 µM)
CC[C@H]1OC(=O)[C@H](C)[C@@H](O[C@H]2C[C@@](C)(OC)[C@@H](OC(=O)NCCc3ccc(O)cc3)[C@H](C)O2)[C@H](C)[C@@H](O[C@@H]2O[C@H](C)C[C@H](N(C)C)[C@H]2O)[C@](C)(OC)C[C@@H](C)C(=O)[C@H](C)[C@@H](O)[C@]1(C)O	0.12 (≈ 0.132 µM)	128 (≈ 140 µM)	0.03 (≈ 0.0329 µM)	0.25 (≈ 0.274 µM)	128 (≈ 140 µM)	4 (≈ 4.39 µM)	16 (≈ 17.6 µM)	0.25 (≈ 0.274 µM)
CC[C@H]1OC(=O)[C@H](C)[C@@H](O[C@H]2C[C@@](C)(OC)[C@@H](OC(=O)NCCc3ccccc3Cl)[C@H](C)O2)[C@H](C)[C@@H](O[C@@H]2O[C@H](C)C[C@H](N(C)C)[C@H]2O)[C@](C)(OC)C[C@@H](C)C(=O)[C@H](C)[C@@H](O)[C@]1(C)O	0.06 (≈ 0.0645 µM)	16 (≈ 17.2 µM)	0.03 (≈ 0.0323 µM)	0.5 (≈ 0.538 µM)	32 (≈ 34.4 µM)	0.5 (≈ 0.538 µM)	0.25 (≈ 0.269 µM)	0.12 (≈ 0.129 µM)
CC[C@H]1OC(=O)[C@H](C)[C@@H](O[C@H]2C[C@@](C)(OC)[C@@H](OC(=O)NCCc3ccccc3)[C@H](C)O2)[C@H](C)[C@@H](O[C@@H]2O[C@H](C)C[C@H](N(C)C)[C@H]2O)[C@](C)(OC)C[C@@H](C)C(=O)[C@H](C)[C@@H](O)[C@]1(C)O	0.03 (≈ 0.0335 µM)	16 (≈ 17.9 µM)	0.03 (≈ 0.0335 µM)	0.25 (≈ 0.279 µM)	64 (≈ 71.5 µM)	1 (≈ 1.12 µM)	0.06 (≈ 0.067 µM)	0.12 (≈ 0.134 µM)
CC[C@H]1OC(=O)[C@H](C)[C@@H](O[C@H]2C[C@@](C)(OC)[C@@H](OC(=O)NCCc3ccc4c(c3)OCO4)[C@H](C)O2)[C@H](C)[C@@H](O[C@@H]2O[C@H](C)C[C@H](N(C)C)[C@H]2O)[C@](C)(OC)C[C@@H](C)C(=O)[C@H](C)[C@@H](O)[C@]1(C)O	0.06 (≈ 0.0639 µM)	32 (≈ 34.1 µM)	0.5 (≈ 0.532 µM)	0.5 (≈ 0.532 µM)	64 (≈ 68.1 µM)	0.25 (≈ 0.266 µM)	0.5 (≈ 0.532 µM)	0.25 (≈ 0.266 µM)
CC[C@H]1OC(=O)[C@H](C)[C@@H](O[C@H]2C[C@@](C)(OC)[C@@H](OC(=O)NCCCC(=O)NCc3ccccc3)[C@H](C)O2)[C@H](C)[C@@H](O[C@@H]2O[C@H](C)C[C@H](N(C)C)[C@H]2O)[C@](C)(OC)C[C@@H](C)C(=O)[C@H](C)[C@@H](O)[C@]1(C)O	0.03 (≈ 0.031 µM)	2 (≈ 2.07 µM)	0.25 (≈ 0.259 µM)	64 (≈ 66.2 µM)	0.25 (≈ 0.259 µM)	0.5 (≈ 0.517 µM)	4 (≈ 4.14 µM)	0.12 (≈ 0.124 µM)
CC[C@H]1OC(=O)[C@H](C)[C@@H](O[C@H]2C[C@@](C)(OC)[C@@H](OC(=O)NCCCC(=O)NCc3ccc(F)cc3)[C@H](C)O2)[C@H](C)[C@@H](O[C@@H]2O[C@H](C)C[C@H](N(C)C)[C@H]2O)[C@](C)(OC)C[C@@H](C)C(=O)[C@H](C)[C@@H](O)[C@]1(C)O	0.03 (≈ 0.0305 µM)	1 (≈ 1.02 µM)	0.25 (≈ 0.254 µM)	16 (≈ 16.3 µM)	2 (≈ 2.03 µM)	0.25 (≈ 0.254 µM)	1 (≈ 1.02 µM)	0.12 (≈ 0.122 µM)
CC[C@H]1OC(=O)[C@H](C)[C@@H](O[C@H]2C[C@@](C)(OC)[C@@H](OC(=O)NCCCC(=O)NCc3ccc(OC)cc3)[C@H](C)O2)[C@H](C)[C@@H](O[C@@H]2O[C@H](C)C[C@H](N(C)C)[C@H]2O)[C@](C)(OC)C[C@@H](C)C(=O)[C@H](C)[C@@H](O)[C@]1(C)O	0.03 (≈ 0.0301 µM)	0.06 (≈ 0.0602 µM)	0.03 (≈ 0.0301 µM)	0.5 (≈ 0.502 µM)	1 (≈ 1 µM)	0.25 (≈ 0.251 µM)	8 (≈ 8.03 µM)	0.12 (≈ 0.12 µM)
CC[C@H]1OC(=O)[C@H](C)[C@@H](O[C@H]2C[C@@](C)(OC)[C@@H](OC(=O)NCCCC(=O)NCCc3ccc(O)cc3)[C@H](C)O2)[C@H](C)[C@@H](O[C@@H]2O[C@H](C)C[C@H](N(C)C)[C@H]2O)[C@](C)(OC)C[C@@H](C)C(=O)[C@H](C)[C@@H](O)[C@]1(C)O	0.03 (≈ 0.0301 µM)	0.25 (≈ 0.251 µM)	0.5 (≈ 0.502 µM)	8 (≈ 8.03 µM)	1 (≈ 1 µM)	0.5 (≈ 0.502 µM)	9 (≈ 9.03 µM)	0.5 (≈ 0.502 µM)
CCCNC(=O)O[C@H]1[C@H](C)O[C@@H](O[C@H]2[C@H](C)[C@@H](O[C@@H]3O[C@H](C)C[C@H](N(C)C)[C@H]3O)[C@](C)(OC)C[C@@H](C)C(=O)[C@H](C)[C@@H](O)[C@](C)(O)[C@@H](CC)OC(=O)[C@@H]2C)C[C@@]1(C)OC	0.25 (≈ 0.3 µM)	64 (≈ 76.8 µM)	0.5 (≈ 0.6 µM)	1 (≈ 1.2 µM)	32 (≈ 38.4 µM)	2 (≈ 2.4 µM)	16 (≈ 19.2 µM)	0.25 (≈ 0.3 µM)
C=CCNC(=O)O[C@H]1[C@H](C)O[C@@H](O[C@H]2[C@H](C)[C@@H](O[C@@H]3O[C@H](C)C[C@H](N(C)C)[C@H]3O)[C@](C)(OC)C[C@@H](C)C(=O)[C@H](C)[C@@H](O)[C@](C)(O)[C@@H](CC)OC(=O)[C@@H]2C)C[C@@]1(C)OC	0.25 (≈ 0.301 µM)	–	0.03 (≈ 0.0361 µM)	–	–	–	32 (≈ 38.5 µM)	0.25 (≈ 0.301 µM)
CCCCNC(=O)O[C@H]1[C@H](C)O[C@@H](O[C@H]2[C@H](C)[C@@H](O[C@@H]3O[C@H](C)C[C@H](N(C)C)[C@H]3O)[C@](C)(OC)C[C@@H](C)C(=O)[C@H](C)[C@@H](O)[C@](C)(O)[C@@H](CC)OC(=O)[C@@H]2C)C[C@@]1(C)OC	0.25 (≈ 0.295 µM)	64 (≈ 75.6 µM)	0.25 (≈ 0.295 µM)	4 (≈ 4.72 µM)	64 (≈ 75.6 µM)	1 (≈ 1.18 µM)	8 (≈ 9.44 µM)	0.25 (≈ 0.295 µM)
CCCCCNC(=O)O[C@H]1[C@H](C)O[C@@H](O[C@H]2[C@H](C)[C@@H](O[C@@H]3O[C@H](C)C[C@H](N(C)C)[C@H]3O)[C@](C)(OC)C[C@@H](C)C(=O)[C@H](C)[C@@H](O)[C@](C)(O)[C@@H](CC)OC(=O)[C@@H]2C)C[C@@]1(C)OC	0.06 (≈ 0.0697 µM)	32 (≈ 37.2 µM)	0.03 (≈ 0.0348 µM)	0.12 (≈ 0.139 µM)	128 (≈ 149 µM)	0.25 (≈ 0.29 µM)	16 (≈ 18.6 µM)	0.25 (≈ 0.29 µM)
C=CCNC(=O)CCCNC(=O)O[C@H]1[C@H](C)O[C@@H](O[C@H]2[C@H](C)[C@@H](O[C@@H]3O[C@H](C)C[C@H](N(C)C)[C@H]3O)[C@](C)(OC)C[C@@H](C)C(=O)[C@H](C)[C@@H](O)[C@](C)(O)[C@@H](CC)OC(=O)[C@@H]2C)C[C@@]1(C)OC	0.03 (≈ 0.0327 µM)	–	0.03 (≈ 0.0327 µM)	–	–	–	8 (≈ 8.73 µM)	0.25 (≈ 0.273 µM)
C=CCNC(=O)CCCCCNC(=O)O[C@H]1[C@H](C)O[C@@H](O[C@H]2[C@H](C)[C@@H](O[C@@H]3O[C@H](C)C[C@H](N(C)C)[C@H]3O)[C@](C)(OC)C[C@@H](C)C(=O)[C@H](C)[C@@H](O)[C@](C)(O)[C@@H](CC)OC(=O)[C@@H]2C)C[C@@]1(C)OC	0.03 (≈ 0.0318 µM)	–	0.5 (≈ 0.53 µM)	–	–	–	16 (≈ 16.9 µM)	0.25 (≈ 0.265 µM)
